From US9125913B2, “Bcl-2-selective apoptosis-inducing agents for the treatment of cancer and immune diseases” (AbbVie Inc., priority 2008, dated 2015)

These molecules were tested on GST-Bcl-2 (assay: TR-FRET binding assay, Bcl-2). Conditions: TR-FRET Ki values.
Procedure, shortened: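 Ki values come from Wang's competitive-binding equation applied to TR-FRET signal (excitation 340/35 nm; emission 520/525 nm F-Bak peptide, 495/510 nm Tb antibody). Protein, probe and antibody incubated with compound 3 h at room temperature; dilution series began at 50 μM as 2× stock in 10% DMSO.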

Structure (SMILES) | Binding selectivity ratio (Bcl-XL Ki/Bcl-2 Ki)
CN(C)CC(=O)N1CCO[C@@H](CNc2ccc(S(=O)(=O)NC(=O)c3ccc(N4CCN(CC5=C(c6ccc(Cl)cc6)CC(C)(C)CC5)CC4)cc3Oc3cccc4[nH]cnc34)cc2[N+](=O)[O-])C1 [EXAMPLE 438, 2-(1H-benzimidazol-4-yloxy)-4-(4-{[2-(4-chlorophenyl)-4,4-dimethylcyclohex-1-en-1-yl]methyl}piperazin-1-yl)-N-{[4-({[(2S)-4-(N,N-dimethylglycyl)morpholin-2-yl]methyl}amino)-3-nitrophenyl]sulfonyl}benzamide] | 34.5
CC1(C)CCC(CN2CCN(c3ccc(C(=O)NS(=O)(=O)c4ccc(NCC5CCOC5)c([N+](=O)[O-])c4)c(Oc4cccc5[nH]cnc45)c3)CC2)=C(c2ccc(Cl)cc2)C1 (stereo not drawn) [EXAMPLE 439, 2-(1H-benzimidazol-4-yloxy)-4-(4-{[2-(4-chlorophenyl)-4,4-dimethylcyclohex-1-en-1-yl]methyl}piperazin-1-yl)-N-({3-nitro-4-[(tetrahydrofuran-3-ylmethyl)amino]phenyl}sulfonyl)benzamide] | 1496.8
CO[C@H]1CC[C@H](CNc2ccc(S(=O)(=O)NC(=O)c3ccc(N4CCN(CC5=C(c6ccc(Cl)cc6)CC(C)(C)CC5)CC4)cc3Oc3cccc4[nH]cnc34)cc2[N+](=O)[O-])CC1 [EXAMPLE 440, Trans-2-(1H-benzimidazol-4-yloxy)-4-(4-{[2-(4-chlorophenyl)-4,4-dimethylcyclohex-1-en-1-yl]methyl}piperazin-1-yl)-N-[(4-{[(4-methoxycyclohexyl)methyl]amino}-3-nitrophenyl)sulfonyl]benzamide] | 4549.1
CC1(C)CCC(CN2CCN(c3ccc(C(=O)NS(=O)(=O)c4ccc(NCC5(F)CCOCC5)c([N+](=O)[O-])c4)c(Oc4cccc5[nH]cnc45)c3)CC2)=C(c2ccc(Cl)cc2)C1 [EXAMPLE 441, 2-(1H-benzimidazol-4-yloxy)-4-(4-{[2-(4-chlorophenyl)-4,4-dimethylcyclohex-1-en-1-yl]methyl}piperazin-1-yl)-N-[(4-{[(4-fluorotetrahydro-2H-pyran-4-yl)methyl]amino}-3-nitrophenyl)sulfonyl]benzamide] | 2421.9
CC1(C)CCC(CN2CCN(c3ccc(C(=O)NS(=O)(=O)c4cnc(OCC5(F)CCOCC5)c(F)c4)c(Oc4cccc5[nH]cnc45)c3)CC2)=C(c2ccc(Cl)cc2)C1 [EXAMPLE 442, 2-(1H-benzimidazol-4-yloxy)-4-(4-{[2-(4-chlorophenyl)-4,4-dimethylcyclohex-1-en-1-yl]methyl}piperazin-1-yl)-N-({5-fluoro-6-[(4-fluorotetrahydro-2H-pyran-4-yl)methoxy]pyridin-3-yl}sulfonyl)benzamide] | 3358.9
CC1(C)CCC(CN2CCN(c3ccc(C(=O)NS(=O)(=O)c4cnc(OCC5(F)CCOCC5)c(Cl)c4)c(Oc4cccc5[nH]cnc45)c3)CC2)=C(c2ccc(Cl)cc2)C1 [EXAMPLE 443, 2-(1H-benzimidazol-4-yloxy)-N-({5-chloro-6-[(4-fluorotetrahydro-2H-pyran-4-yl)methoxy]pyridin-3-yl}sulfonyl)-4-(4-{[2-(4-chlorophenyl)-4,4-dimethylcyclohex-1-en-1-yl]methyl}piperazin-1-yl)benzamide] | 1935.7
CC1(C)CCC(CN2CCN(c3ccc(C(=O)NS(=O)(=O)c4cnc(OC[C@@H]5CCN(C(CF)CF)C5)c(Cl)c4)c(Oc4cccc5[nH]ncc45)c3)CC2)=C(c2ccc(Cl)cc2)C1 [EXAMPLE 444, N-{[5-chloro-6-({(3R)-1-[2-fluoro-1-(fluoromethyl)ethyl]pyrrolidin-3-yl}methoxy)pyridin-3-yl]sulfonyl}-4-(4-{[2-(4-chlorophenyl)-4,4-dimethylcyclohex-1-en-1-yl]methyl}piperazin-1-yl)-2-(1H-indazol-4-yloxy)benzamide] | 727.625
CC1(C)CCC(CN2CCN(c3ccc(C(=O)NS(=O)(=O)c4cnc(OC[C@@H]5CCN(CC(F)F)C5)c(Cl)c4)c(Oc4cccc5[nH]ncc45)c3)CC2)=C(c2ccc(Cl)cc2)C1 [EXAMPLE 445, N-[(5-chloro-6-{[(3R)-1-(2,2-difluoroethyl)pyrrolidin-3-yl]methoxy}pyridin-3-yl)sulfonyl]-4-(4-{[2-(4-chlorophenyl)-4,4-dimethylcyclohex-1-en-1-yl]methyl}piperazin-1-yl)-2-(1H-indazol-4-yloxy)benzamide] | 484.2
CO[C@H]1CC[C@H](CNc2ccc(S(=O)(=O)NC(=O)c3ccc(N4CCN(CC5=C(c6ccc(Cl)cc6)CC(C)(C)CC5)CC4)cc3Oc3cccc4[nH]ncc34)cc2[N+](=O)[O-])CC1 [EXAMPLE 446, Trans-4-(4-{[2-(4-chlorophenyl)-4,4-dimethylcyclohex-1-en-1-yl]methyl}piperazin-1-yl)-2-(1H-indazol-4-yloxy)-N-[(4-{[(4-methoxycyclohexyl)methyl]amino}-3-nitrophenyl)sulfonyl]benzamide] | 508.4
CC1(C)CCC(CN2CCN(c3ccc(C(=O)NS(=O)(=O)c4cnc(NC5CCN(C6CC6)CC5)c(Cl)c4)c(Oc4cccc5[nH]ncc45)c3)CC2)=C(c2ccc(Cl)cc2)C1 [EXAMPLE 448, N-({5-chloro-6-[(1-cyclopropylpiperidin-4-yl)amino]pyridin-3-yl}sulfonyl)-4-(4-{[2-(4-chlorophenyl)-4,4-dimethylcyclohex-1-en-1-yl]methyl}piperazin-1-yl)-2-(1H-indazol-4-yloxy)benzamide] | 3119
CC1(C)CCC(CN2CCN(c3ccc(C(=O)NS(=O)(=O)c4cnc(NC5CCN(C6CC6)CC5)c(Cl)c4)c(Oc4cccc5[nH]cnc45)c3)CC2)=C(c2ccc(Cl)cc2)C1 [EXAMPLE 449, 2-(1H-benzimidazol-4-yloxy)-N-({5-chloro-6-[(1-cyclopropylpiperidin-4-yl)amino]pyridin-3-yl}sulfonyl)-4-(4-{[2-(4-chlorophenyl)-4,4-dimethylcyclohex-1-en-1-yl]methyl}piperazin-1-yl)benzamide] | 74.4
CC1(C)CCC(CN2CCN(c3ccc(C(=O)NS(=O)(=O)c4ccc(NCC5COCCO5)c([N+](=O)[O-])c4)c(Oc4cccc5[nH]cnc45)c3)CC2)=C(c2ccc(Cl)cc2)C1 (stereo not drawn) [EXAMPLE 450, 2-(1H-benzimidazol-4-yloxy)-4-(4-{[2-(4-chlorophenyl)-4,4-dimethylcyclohex-1-en-1-yl]methyl}piperazin-1-yl)-N-({4-[(1,4-dioxan-2-ylmethyl)amino]-3-nitrophenyl}sulfonyl)benzamide] | 107.3
CC1(C)CCC(CN2CCN(c3ccc(C(=O)NS(=O)(=O)c4ccc(NC5CCN(C6CC6)CC5)c([N+](=O)[O-])c4)c(Oc4cccc5[nH]cnc45)c3)CC2)=C(c2ccc(Cl)cc2)C1 [EXAMPLE 451, 2-(1H-benzimidazol-4-yloxy)-4-(4-{[2-(4-chlorophenyl)-4,4-dimethylcyclohex-1-en-1-yl]methyl}piperazin-1-yl)-N-({4-[(1-cyclopropylpiperidin-4-yl)amino]-3-nitrophenyl}sulfonyl)benzamide] | 359.92
CC1(C)CCC(CN2CCN(c3ccc(C(=O)NS(=O)(=O)c4ccc(N[C@H]5CC[C@H](N6CCOCC6)CC5)c([N+](=O)[O-])c4)c(Oc4cccc5[nH]cnc45)c3)CC2)=C(c2ccc(Cl)cc2)C1 [EXAMPLE 452, Trans-2-(1H-benzimidazol-4-yloxy)-4-(4-{[2-(4-chlorophenyl)-4,4-dimethylcyclohex-1-en-1-yl]methyl}piperazin-1-yl)-N-({4-[(4-morpholin-4-ylcyclohexyl)amino]-3-nitrophenyl}sulfonyl)benzamide] | 600.39
CN1CCN(Nc2ccc(S(=O)(=O)NC(=O)c3ccc(N4CCN(CC5=C(c6ccc(Cl)cc6)CC(C)(C)CC5)CC4)cc3Oc3cccc4[nH]cnc34)cc2[N+](=O)[O-])CC1 [EXAMPLE 453, 2-(1H-benzimidazol-4-yloxy)-4-(4-{[2-(4-chlorophenyl)-4,4-dimethylcyclohex-1-en-1-yl]methyl}piperazin-1-yl)-N-({4-[(4-methylpiperazin-1-yl)amino]-3-nitrophenyl}sulfonyl)benzamide] | 363.04
COCCOCCN1CCO[C@H](CNc2ccc(S(=O)(=O)NC(=O)c3ccc(N4CCN(CC5=C(c6ccc(Cl)cc6)CC(C)(C)CC5)CC4)cc3Oc3cccc4[nH]cnc34)cc2[N+](=O)[O-])C1 [EXAMPLE 455, 2-(1H-benzimidazol-4-yloxy)-4-(4-{[2-(4-chlorophenyl)-4,4-dimethylcyclohex-1-en-1-yl]methyl}piperazin-1-yl)-N-({4-[({(2R)-4-[2-(2-methoxyethoxy)ethyl]morpholin-2-yl}methyl)amino]-3-nitrophenyl}sulfonyl)benzamide] | 139.4
CC1(C)CCC(CN2CCN(c3ccc(C(=O)NS(=O)(=O)c4ccc(NCC5CCC(F)(F)CC5)c([N+](=O)[O-])c4)c(Oc4cccc5[nH]cnc45)c3)CC2)=C(c2ccc(Cl)cc2)C1 [EXAMPLE 456, 2-(1H-benzimidazol-4-yloxy)-4-(4-{[2-(4-chlorophenyl)-4,4-dimethylcyclohex-1-en-1-yl]methyl}piperazin-1-yl)-N-[(4-{[(4,4-difluorocyclohexyl)methyl]amino}-3-nitrophenyl)sulfonyl]benzamide] | 53.991
CC(=O)N1CCOC(CNc2ccc(S(=O)(=O)NC(=O)c3ccc(N4CCN(CC5=C(c6ccc(Cl)cc6)CC(C)(C)CC5)CC4)cc3Oc3cccc4[nH]cnc34)cc2[N+](=O)[O-])C1 (stereo not drawn) [EXAMPLE 457, N-[(4-{[(4-acetylmorpholin-2-yl)methyl]amino}-3-nitrophenyl)sulfonyl]-2-(1H-benzimidazol-4-yloxy)-4-(4-{[2-(4-chlorophenyl)-4,4-dimethylcyclohex-1-en-1-yl]methyl}piperazin-1-yl)benzamide] | 7414
